Data set [1] relates to 2019 novel coronavirus (SARS-CoV-2) original strain. Put plainly: Replication inhibitory activity against SARS-CoV-2 original strain in Vero E6 cells (qRT-PCR). The following applies: Severe acute respiratory syndrome coronavirus 2, Vero C1008; Vero E6 cells, MOI 0.01, 24 h p.i., viral copy number by qRT-PCR; read-out: Inhibition against viral replication of the original strain EC50. The class given is cell-based. For orientation: Quantitative PCR measures a nucleic acid by following its amplification.

In data set [2] the target is novel coronavirus envelope protein (2-E) ion channel (Severe acute respiratory syndrome coronavirus 2, UniProt P0DTC4). The data set can be described thus: Novel coronavirus envelope protein (2-E) ion channel activity test, planar lipid bilayer (BLM). The class given is biochemical, SARS-CoV-2. The following applies: room temperature, 1, 10, 50, 100 μM, read-out: Inhibition against 2-E ion channels IC50.

The target in data set [3] is T1, hERG potassium channel (Homo sapiens, UniProt Q12809).
T1 construct: expressed in transfected cells
Put plainly: hERG potassium channel whole-cell membrane clamp in CHO cells. The class given is cell-based. The following applies: CHO cells stably expressing hERG, whole-cell membrane clamp. Here is the method:
Compounds were given for at least 1 min for each tested concentration, and at least 2 cells (n≥2) were tested per concentration.

A short description of data set [4]: Cytotoxicity test on Vero E6 cells (CCK8). The class given is cell-based. The following applies: African green monkey; Vero E6 cells, CCK8 kit. Here is the method: (§1) In this embodiment, the half toxicity concentration of each embodiment on Vero E6 cells was determined by CCK8 kit analysis (CC50).
A general note: Tetrazolium dyes change colour on reduction, which living cells bring about.

Data set [5] concerns HCoV OC43 virus. Put plainly: Inhibition against HCoV OC43 virus replication. The class given is cell-based, human coronavirus HCoV OC43. The following applies: for EC50: Betacoronavirus 1, OC43.
Data set [6] deals with Raw 264.7 cells. Put plainly: Cell viability in LPS-induced inflammation model of Raw 264.7 cells (CCK-8). The class given is cell-based. The following applies: 1 μg/ml LPS, 1 μM compound, 16 hours. On the procedure:
In this example, the effect of the compounds of the present invention on the inflammation level of the LPS-induced inflammation model of Raw 264.7 cells was analyzed by cell viability in combination with inflammatory factors; cell viability was analyzed by CCK-8 assay; and mRNA expression levels of inflammation-related indicators were detected by a real-time quantitative PCR (Q-PCR) method. Raw 264.7 cells were purchased from ATCC; CCK-8 kit was purchased from Meilunbio, item no. MA0218-3; LPS was purchased from Sigma, item no. L2630.
Experimental methods: first, 8000 cells/well Raw 264.7 cells were placed in 96-well plates and incubated overnight. On the second day, 0.1% DMSO was added to the control cells, 1 μg/ml LPS as well as 0.1% DMSO was added to the model group, 1 μg/ml LPS as well as 1 μM of the compounds (oxyacanthine hydrochloride (oxy), 1, 2, tetrandrine (tet), 3, 4, 6, 58) was added to the treatment group, and the 96-well plates were sterilized and incubated in a constant temperature incubator for 16 hours. Finally, the viability of the cells was detected using the CCK-8 kit.

The subject of data set [7] is Raw 264.7 cells. Put plainly: Cell viability in TNF-α induced inflammation model of Raw 264.7 cells (CCK-8). The class given is cell-based. The following applies: 10 ng/ml TNF-α, 1 μM compound, 16 hours. On the procedure:
(§2) In this embodiment, the effect of compounds on TNF-α-induced inflammation levels in Raw 264.7 cells was analyzed by cell viability combined with inflammatory factor expression levels; cell viability was analyzed by CCK-8 assay; and mRNA expression levels of inflammation-associated indicators were detected by real-time quantitative PCR (Q-PCR) method. Raw 264.7 cells were purchased from ATCC, CCK-8 kit was purchased from Meilunbio, item number MA0218-3, TNF-α was purchased from Merck, item no. GF314.
(§3) Experimental methods: first, 8000 cells/well Raw 264.7 cells were placed in 96-well plates and incubated overnight. On the second day, 0.1% DMSO was added to the control cells, 10 ng/ml TNF-α as well as 0.1% DMSO was added to the model group, 10 ng/ml TNF-α as well as 1 μM of the compounds (oxyacanthine hydrochloride (oxy), 1, 2, tetrandrine (tet), 3, 4, 6, 58) was added to the treatment group, and the 96-well plates were sterilized and incubated in a constant temperature incubator for 16 hours. Finally, the viability of the cells was detected using the CCK-8 kit.

Data set [8] concerns ALM12 hepatocytes. The data set can be described thus: Anti H2O2-induced necrotic injury assay in ALM12 hepatocytes (microscopy, CCK-8). The class given is cell-based. The following applies: 2 mM H2O2, 1 μM compound, 3 hours, microscope and CCK-8. Here is the method: In this example, the effect of the compounds of the present invention on the level of necrotic injury induced by H2O2 in ALM12 hepatocytes was analyzed by microscopic morphological observations, cell viability in combination with cell death-associated molecules. Cell viability was analyzed by CCK-8 assay. ALM12 cells were cultured in 1640 medium (gibco, c11995500BT)+10% FBS (gibco, 10099141C) in a constant temperature incubator at 37° C., 5% CO2; the CCK-8 kit was purchased from Meilunbio, item no. MA0218-3; H2O2 was purchased from Sinopharm Chemical Reagent Co. item no. 10011208.
Experimental methods: first, 8000 cells/well ALM12 cells were placed in 96-well plates and incubated overnight. On the second day, 0.1% DMSO was added to the control cells, 2 mM H2O2 as well as 0.1% DMSO was added to the model group, 2 mM H2O2 as well as 1 μM of the compounds (oxy, 1, 2, tet, 3, 4, 6, 58) was added to the treatment group, and the 96-well plates were sterilized and incubated in a constant temperature incubator for 3 hours. Finally, cell injury and growth were observed using a microscope; the viability of the cells was detected by CCK-8 kit.

The test system of data set [9] is Vero E6 cells. Put plainly: Cytotoxicity test on Vero E6 cells (CCK8). The class given is cell-based. The following applies: Vero E6 cells. On the procedure:
as §1

Data set [10] concerns inflammatory factor mRNA in Raw 264.7 cells. The data set can be described thus: mRNA levels of inflammatory indicators in TNF-α-induced inflammation model of Raw264.7 cells (Q-PCR). The class given is cell-based. The following applies: 10 ng/ml TNF-α, 1 μM compound, 16 hours. Here is the method:
as §2
as §3, with “5*10^4” for “8000”, “12-well” for “96-well”, “Cellular mRNA was extracted by lysis using Trizol (Yisheng, 10606ES60) and detected by real-time quantitative PCR after reverse transcription,” for “Finally,”, “primers are” for “viability of”, “same as in Table 2.” for “cells was detected using the CCK-8 kit.”

Data set [11] concerns TNF-α and IL1β mRNA in A549 cells. The data set can be described thus: mRNA levels of injury indicators in TNF-α-induced A549 cell injury (Q-PCR). The class given is cell-based. The following applies: 10 ng/ml TNF-α, 1 μM compound, 24 hours. Here is the method: In this example, cell viability combined with cell death-associated molecules were used to analyze the effect of compounds on the level of TNF-α-induced injury in A549 lung epithelial cells. Cell injury was observed by microscopy; cell viability was analyzed by CCK-8 assay; and mRNA expression levels of injury-related indicators were detected by real-time quantitative PCR (Q-PCR) method. A549 cells were purchased from ATCC, CCK-8 kit was purchased from Meilunbio, item no. MA0218-3, and LPS was purchased from Sigma, item no. L2630.
Experimental methods: first, 5*10^4 cells/well A549 cells were placed in 12-well plates and incubated overnight. On the second day, 0.1% DMSO was added to the control cells, 10 ng/ml TNF-α as well as 0.1% DMSO was added to the model group, 10 ng/ml TNF-α as well as 1 μM of the compounds (oxy, 1, 2, tet, 3, 4, 6, 58) was added to the treatment group, and the 12-well plates were sterilized and incubated in a constant temperature incubator for 24 hours. Cellular mRNA was extracted by lysis using Trizol (Yisheng, 10606ES60) and detected by real-time quantitative PCR after reverse transcription.

The test system of data set [12] is Th1/Th17 differentiation of CD4+T cells. The data set can be described thus: CD4+T cell in vitro differentiation assay (Th1 IFN-γ / Th17 IL-17A, flow cytometry). The following applies: 10 μM, 72 h, IFN-γ/IL-17A by flow cytometry.
Method: CD4^+T cell isolation: CD4^+T cells were isolated from the spleens of 7-8 week old C57BL/6 mice using the Mouse CD4^+T Cell Sorting Kit (Dynabeads® Untouched™ Mouse CD4 Cells Isolation Kit, Invitrogen, Catalog nos: 11415D).
In vitro differentiation of CD4^+T cells: the isolated CD4^+T cells were inoculated into 96-well plates while different concentrations of compounds were added, and then corresponding cytokines and antibodies were added: anti-CD28 (2 μg/ml), anti-CD3 (2 μg/ml), Anti-IL-4 (10 μg/ml), IL-12 (10 ng/ml), Anti-IFN-γ (10 μg/ml), anti-IL-4 (10 μg/ml), IL-6 (30 ng/ml), TGF-β1 (3 ng/ml), IL-10 (10 ng/ml), IL-23 (10 ng/ml), and TNF-α (10 ng/ml). Cells were cultured in 5% CO2 at 37° C. in a cell culture chamber for 72 h. Cells were collected, stained intracellularly, analyzed by flow cytometry, and tested for IFN-γ/IL-17A content to assess the effect of compounds on CD4^+T differentiation into Th1/Th17 in vitro.

“Also recorded” adds a separate entry of the source.

In general, EC50 refers to the concentration giving half of the maximal effect. As a reminder, the IC50 is the concentration needed to halve the response being measured.

T1 sequence (Q12809 whole entry): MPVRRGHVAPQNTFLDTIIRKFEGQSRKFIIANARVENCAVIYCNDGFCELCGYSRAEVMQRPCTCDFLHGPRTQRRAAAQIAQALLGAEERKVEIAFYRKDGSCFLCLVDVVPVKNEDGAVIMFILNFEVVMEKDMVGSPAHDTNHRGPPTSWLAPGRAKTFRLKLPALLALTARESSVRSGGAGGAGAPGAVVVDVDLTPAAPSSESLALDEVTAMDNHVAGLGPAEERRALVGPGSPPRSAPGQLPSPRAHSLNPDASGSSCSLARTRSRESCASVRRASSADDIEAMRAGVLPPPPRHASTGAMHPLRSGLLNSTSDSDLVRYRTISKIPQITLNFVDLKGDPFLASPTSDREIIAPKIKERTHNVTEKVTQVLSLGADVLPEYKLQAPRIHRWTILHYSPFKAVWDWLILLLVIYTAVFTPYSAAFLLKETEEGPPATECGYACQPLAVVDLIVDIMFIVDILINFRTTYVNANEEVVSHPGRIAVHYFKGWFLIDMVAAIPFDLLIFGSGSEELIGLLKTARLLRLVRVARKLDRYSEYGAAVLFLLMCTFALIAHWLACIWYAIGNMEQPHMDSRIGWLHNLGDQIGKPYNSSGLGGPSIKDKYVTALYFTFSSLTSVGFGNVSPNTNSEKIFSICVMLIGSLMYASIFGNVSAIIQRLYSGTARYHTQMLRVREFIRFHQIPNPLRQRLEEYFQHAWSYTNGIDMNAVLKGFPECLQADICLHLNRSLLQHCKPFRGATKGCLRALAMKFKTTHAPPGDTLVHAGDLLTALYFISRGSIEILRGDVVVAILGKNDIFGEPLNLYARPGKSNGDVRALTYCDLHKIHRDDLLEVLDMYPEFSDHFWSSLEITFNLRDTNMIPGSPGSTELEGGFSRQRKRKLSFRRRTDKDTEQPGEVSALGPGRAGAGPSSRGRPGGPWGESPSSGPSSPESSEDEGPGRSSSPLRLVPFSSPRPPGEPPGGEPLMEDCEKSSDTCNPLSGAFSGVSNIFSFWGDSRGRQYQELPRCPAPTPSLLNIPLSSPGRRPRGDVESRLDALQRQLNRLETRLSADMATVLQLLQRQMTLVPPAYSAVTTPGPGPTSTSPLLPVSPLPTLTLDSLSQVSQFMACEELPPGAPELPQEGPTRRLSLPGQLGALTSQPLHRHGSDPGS
novel coronavirus envelope protein (2-E) ion channel, sequence (P0DTC4 whole entry, looked up): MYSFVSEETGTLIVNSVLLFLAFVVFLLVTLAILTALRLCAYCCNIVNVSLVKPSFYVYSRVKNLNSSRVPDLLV

Consider `CCCCCNC(=O)c1ccc2cc1Oc1ccc(cc1)C[C@H]1c3c(cc(OC)c(OC)c3Oc3cc4c(cc3OC)CCN(C)[C@@H]4C2)CCN1C` [Compound 37], for which, in [1], the EC50 is 1 to 5 µM. Also, the results for the IC50 in data set [2], in [3] and in [4] were below 10 µM, above 20 µM and 10 to 30 µM, respectively.

Consider `COc1cc2c3cc1Oc1c(OC)c(OC)cc4c1[C@H](Cc1ccc(cc1)Oc1cc(ccc1C#N)C[C@H]3N(C)CC2)N(C)CC4` [Compound 1], for which the results for the concentration for a half-maximal effect (EC50) in data set [1] and in data set [5] were 0.1 to 1 µM and 4.2 µM, respectively. The values for the IC50 in data set [2], in data set [3] and in [4] were below 10 µM, 6.4 µM and 10 to 30 µM, respectively. Besides, in data set [6], the “cell viability in LPS-induced inflammation model” value is “did not affect cell viability”. Also, the “cell viability in TNF-α-induced inflammation model” value in data set [7] is “did not affect cell viability”. Also, the “alleviation of H2O2-induced ALM12 hepatocyte injury” value (shortened to “alleviation”) in data set [8] is reported as “significantly alleviated”.

In the case of `C=C(C)c1ccc2cc1Oc1ccc(cc1)C[C@H]1c3c(cc(OC)c(OC)c3Oc3cc4c(cc3OC)CCN(C)[C@@H]4C2)CCN1C` [Compound 34], the EC50 in data set [1] was 0.5 to 1.5 µM. Moreover, the IC50 is below 10 µM in data set [2] and 10 to 30 µM in [4].

Take `COC(=O)c1ccc2cc1Oc1ccc(cc1)C[C@H]1c3c(cc(OC)c(OC)c3Oc3cc4c(cc3OC)CCN(C)[C@@H]4C2)CCN1C` [Compound 3]: the EC50 in data set [1] was 0.1 to 1 µM; in data set [5] it was 2.3 µM. For the same compound, the “inhibition against human coronavirus HCoV OC43” value in data set [5] is reported as “strong inhibition”. The IC50 in [2] is below 10 µM; in data set [3], 7 µM; in data set [4], 30 to 50 µM. Further, the “cytotoxicity on Vero E6 cells compared with oxyacanthine hydrochloride” value in data set [9] was “weaker cytotoxicity than oxyacanthine hydrochloride”. For the same compound, the “cell viability in LPS-induced inflammation model” value in [6] was “did not affect cell viability”. In [7], the “cell viability in TNF-α-induced inflammation model” value is on record as “did not affect cell viability”. In data set [10], the “inhibition of inflammatory factors (mRNA) in TNF-α-induced inflammation model” value is “significantly inhibited inflammatory factors; also recorded: significant inhibition”. The “inhibition of injury (damage) factors mRNA in TNF-α-induced A549 lung cell injury model” value in [11] is on record as “significantly inhibited the damage factors”. Also, the “alleviation” value in data set [8] is “significantly alleviated”. In addition, the “inhibitory effect on Th1/Th17 differentiation” value in data set [12] was “strong inhibitory effect”.

With `COc1cc2c3cc1Oc1c(OC)c(OC)cc4c1[C@H](Cc1ccc(cc1)Oc1cc(ccc1C(=O)O)C[C@H]3N(C)CC2)N(C)CC4` [Compound 7], the IC50 is 10 to 30 µM in data set [2], above 40 µM in [3] and above 50 µM in data set [4].

For the compound `COc1cc2c3cc1Oc1c(OC)c(OC)cc4c1[C@H](Cc1ccc(cc1)Oc1cc(ccc1C(=O)Nc1ccccc1)C[C@H]3N(C)CC2)N(C)CC4` [Compound 45], the concentration for a half-maximal effect (EC50) in data set [1] lay in the range of 1 to 5 µM. In addition, the IC50 is below 10 µM in [2], above 20 µM in [3] and 10 to 30 µM in data set [4].

Consider `COc1cc2c3cc1Oc1c(OC)c(OC)cc4c1[C@H](Cc1ccc(cc1)Oc1cccc(c1)C[C@H]3N(C)CC2)N(C)CC4` [Compound 33], for which the figures for the EC50 in [1] and in data set [5] were 0.1 to 1 µM and 4.1 µM, respectively. In addition, the IC50 in data set [3] was above 40 µM; in data set [4], 10 to 30 µM.

As for `COc1cc2c3cc1Oc1c(OC)c(OC)cc4c1[C@H](Cc1ccc(cc1)Oc1cc(ccc1CO)C[C@H]3N(C)CC2)N(C)CC4` [Compound 9], the EC50 was 0.5 to 1.5 µM in data set [1] and 3 µM in [5]. In addition, the IC50 in [2] is 10 to 30 µM; in data set [4], above 50 µM.

Regarding `COc1cc2c3cc1Oc1c(OC)c(OC)cc4c1[C@H](Cc1ccc(cc1)Oc1cc(ccc1C(=O)NC1CC1)C[C@H]3N(C)CC2)N(C)CC4` [Compound 6], in [1], the EC50 is 0.1 to 1 µM. For the same compound, the IC50 in data set [3] is 8.9 µM; in [4], above 50 µM. For the same compound, in data set [9], the “cytotoxicity on Vero E6 cells compared with oxyacanthine hydrochloride” value is on record as “weaker cytotoxicity than oxyacanthine hydrochloride”. Moreover, the “cell viability in LPS-induced inflammation model” value in data set [6] is recorded as “did not affect cell viability”. Moreover, in data set [7], the “cell viability in TNF-α-induced inflammation model” value is “did not affect cell viability”. In data set [10], the “inhibition of inflammatory factors (mRNA) in TNF-α-induced inflammation model” value is given as “significantly inhibited inflammatory factors; also recorded: significant inhibition”. The “alleviation” value in data set [8] was “significantly alleviated”. Moreover, the “inhibitory effect on Th1/Th17 differentiation” value in [12] is “strong inhibitory effect”.

The record behind these values is US20250296937A1, “CYCLIC BISBENZYL TETRAHYDROISOQUINOLINE COMPOUND, AND PREPARATION METHOD THEREFOR AND USE THEREOF” (Shanghai Institute of Materia Medica, Chinesse Academy of …, priority 2021, published 2025).
